Measurements from patent publication US20100120662A1, “Glucose uptake modulator and method for treating diabetes or diabetic complications” (POSTECH Foundation, priority 2005, published 2010).
Ends that are not written are not given here.

Experiments:
3T3-L1 adipocytes = test: [14C] 2-deoxy-D-glucose uptake in 3T3-L1 adipocytes; type: cell-based; conditions: for stimulation of glucose uptake: equimolar 20 μM, 10 min; for time and dose dependence of glucose uptake: various concentrations; for effect of pretreatment on LPC-stimulated glucose uptake: then 20 μM LPC 10 min
Description: Cell culture: 3T3-L1 fibroblasts were grown to confluence in DMEM containing a high glucose concentration, 10% fetal bovine serum, 50 U of penicillin per ml, and 50 ug of streptomycin per ml and maintained in a 5% CO2 humidified atmosphere at 37° C. 3T3-L1 was induced to differentiate into adipocytes, as described previously (van den Berghe, N., et al., Mol Cell Biol 14, pp. 2372-2377, 1994).
Glucose uptake measurement. For measuring glucose uptake in 3T3-L1 adipocytes, cells were grown in serum-free DMEM for 16 h and then incubated in the absence or presence of insulin or lysophospholipids for the indicated times at 37° C. Uptake was measured by adding 1 μCi of [^14C] 2-deoxy-D-glucose and 3 mM 2-deoxy-D-glucose. After 10 min, the assay was terminated by two quick washes with ice-cold PBS. Cells were lysed in 0:5 ml of lysis buffer containing 0.5 N NaOH and 0.1% SDS. The cell lysates were used for liquid scintillation counting and nonspecific uptake was assayed in the presence of 10 μM cytochalasin B (van den Berghe, N., et al., Mol Cell Biol 14, pp. 2372-2377, 1994).
FIG. 2A to 2D show the effects of LPC on the glucose uptake in 3T3-L1 adipocytes. […] After these treatments, [^14C] 2-deoxy-D-glucose uptake was measured for 10 min as described in Material Methods. […] FIGS. 2C and 2D show relative [^14C] 2-deoxy-D-glucose uptake in 3T3-L1 adipocytes incubated in the absence (control) or presence of equimolar concentrations (20 μM) of myristoyl lysophosphatidylcholine (14:0 LPC), palmytoyl lysophosphatidylcholine (16:0 LPC), stearoyl lysophosphatidylcholine (18:0 LPC), palmytoyl lysophsophatidylethanolamine (16:0 LPE), palmytoyl lyso-phosphatidylinositol (16:0 LPI), palmytoyl lysophosphatidylglycerol (16:0 LPG) for 10 min. Values are mean±SE of three independent experiments performed in triplicate. *P<0.05 vs. basal.

male ICR mice [1] = test: Acute blood glucose lowering in normal ICR mice after intravenous lysophospholipid; type: in vivo, mouse; conditions: for level of blood glucose in normal mice: intravenous, 0 to 120 min after dosing
male ICR mice [2] = test: Serum insulin level in mice after single intravenous injection; type: in vivo, mouse
Description: (§1) Animals. Male ICR mice were purchased from hyochang science (ROK). C57BLKSJ-db/db mice were purchased from SLC (Japan). After intravenous injection of LPC, blood glucose was measured regularly with a portable glucose meter (Gluco-Dr, ROK) after tail snipping. For measurement of serum insulin, blood samples of mice were determined with the insulin-RIA Kit (LINCO, Missouri). Insulin deficient mice were induced in male ICR mice by two consecutive daily intraperitoneal injection of STZ (200 mg/kg) dissolved in sodium citrate (pH 5.5). On the third day after the last STZ injection, acute glucose lowering effect was analyzed after intravenous injection of vehicle, LPC or insulin as described above.
(§2) Eight-week-old male mice were intravenously injected with PBS, insulin, LPC, or LPE. Blood glucose was monitored after dosing (0 to 120 min). […] All animals had free access to water. Animal care was in accordance with institutional guidelines. All data are shown as means±SE (n=5-6).*P<0.05.

[3] = test system: STZ-treated insulin deficient ICR male mice; test: Acute glucose lowering in streptozotocin (STZ)-treated insulin deficient ICR mice; type: in vivo, mouse; conditions: LPS injected, dose not given
Description: as §1, §2

IRS1 and AKT = IRS1 and AKT phosphorylation in 3T3-L1 adipocytes (immunoblot); type: cell-based
Description: Immunoblotting. For preparing total cell lysates, 3T3-L1 adipocytes were washed with Ca^2+/Mg^2+-free PBS and then lysed in the lysis buffer (50 mM HEPES, pH 7.2, 150 mM NaCl, 50 mM NaF, 1 mM Na3VO4, 10% glycerol, 1% Triton X-100). The lysates were centrifuged at 15,000 rpm for 15 min at 4° C. The proteins were denatured by boiling in laemmli sample buffer for 5 min at 95° C., separated by SDS-PAGE. SDS-gel was transferred to nitrocellulose membrane using Hoefer wet transfer system. Membranes were blocked in TTBS (20 mM Tris-HCl, pH 7.6, 150 mM NaCl, 0.05% Tween 20) containing 5% skimmed milk powder for 30 min and then incubated with antibodies for 3 hours. After washing membranes several times with TTBS, the blots were incubated with HRP (Horseradish peroxidase)-conjugated goat anti-rabbit for 1 hour. The blots were washed with TTBS and developed by ECL.

insulin receptor (IR) = test: IR autophosphorylation in hIRcB cells; type: cell-based, human; conditions: hIRcB cells
Description: FIG. 12A shown a comparison of insulin sensitizing effect among CRF family which was obtained by incubating cells with 1 μM CRF family and/or 2 nM insulin or with medium alone for 1 min. […] FIG. 12B was obtained by incubating cells with 2 nM insulin and variant dose of UCN (from 2 nM to 1 μM) for 1 min. FIG. 12C was obtained by incubating cells 100 nM UCN and variant dose of insulin for 1 min. Phosphorlyation of IR was assessed by western blotting with anti-pTyr antibodies. FIG. 13D was obtained by incubating cells with 100 nM UCN and/or 10 nM insulin for 0, 2, 10, 30, and 60 min, and then assessing the phosphorlyation of IR by western blotting with anti-pIR antibodies. Quantization of IR autophosphorylation was measured with image gauge software (Fuji film). The values are the mean±S.E. for three experiments. *, P<0.05
hIRcB cells were maintained in DMEM, supplemented with 10% (v/v) FBS. The cells were grown at 37° C. in a humidified atmosphere of 5% CO2 and 95% air.
After treatment of ligands as indicated time and dose, the cells were washed with cold PBS and lysed with lysis buffer (50 mM HEPES pH 7.5, 150 mM NaCl, 1%
Triton X-100, 1 mM EDTA, 10% glycerol) containing protease inhibitors (0.5 mM PMSF, 1 μg/ml leupeptin and 5 μg/ml aprotinin) and phosphatase inhibitors (30 mM NaF, 1 mM Na3VO4 and 30 mM Na4O7P2). The cell lysates were incubated for 1 hr at 4° C. After centrifugation (14,000×g for 15 min), equal amounts of soluble extract were incubated, for 4 hrs, with 5 μg of anti-IR antibody and 30 μl of resin volume of immobilized protein A. For gel electrophoresis, the precipitates were dissolved in Laemmli sample buffer. The sample was separated by SDS-PAGE and transferred to a nitrocellulose membrane (Schleicher and Schuell, BA85). Blocking was performed with TTBS buffer (10 mM Tris/HCl, pH 7.5, 150 mM NaCl, and 0.05% Tween 20) containing 5% skimmed milk powder. The membrane was probed with primary for 3 hrs at room temperature. Subsequently the immunoblot was washed and incubated with horseradish peroxidase-linked secondary antibody for 1 hr at room temperature, rinsed four times in TTBS buffer, and developed with horseradish peroxidase-dependent chemiluminescence reagents (Amersham International, United Kingdom).

GLUT4 = GLUT4 translocation to the plasma membrane in 3T3-L1 adipocytes; type: cell-based; conditions: 100 nM insulin, 10 min
Description: Membrane fractionation of adipocytes. For obtaining total membranes (TM) from 3T3-L1 adipocytes, cells were collected into 10 ml of ice-cold HES buffer (250 mM sucrose, 1 mM EDTA, 1 mM phenylmethylsulfonyl fluoride [PMSF], 1 μM pepstatin, 1 μM aprotinin, 1 μM leupeptin, and 20 mM HEPES, pH 7.4) and subsequently homogenized with 30 strokes in a glass Dounce homogenizer at 4° C. After centrifugation at 1,000 g for 5 min at 4° C. to remove unbroken cells, the supernatant was then centrifugated at 212,000 g for 90 min at 4° C. to yield a pellet of total cellular membranes. To obtain the plasma membrane (PM) subcellular fraction from 3T3-L1 adipocytes, differential ultracentrifugation was used as described previously (Perrini, S., et al., Diabetes 53, pp. 41-52, 2004).
Immunoblotting. For preparing total cell lysates, 3T3-L1 adipocytes were washed with Ca^2+/Mg^2+-free PBS and then lysed in the lysis buffer (50 mM HEPES, pH 7.2, 150 mM NaCl, 50 mM NaF, 1 mM Na3VO4, 10% glycerol, 1% Triton X-100). The lysates were centrifuged at 15,000 rpm for 15 min at 4° C. […]
FIGS. 3A and 3B show LPC stimulates GLUT4 translocation in 3T3-L1 adipocytes. […] In each experiment, the relative increase or decrease in the integrated density value (IDV) of GLUT4 after stimulation with compounds is calculated. B) Quantitation of relative increases is depicted. […]

[4] = 3T3-L1 adipocytes, 10 min incubation

CCCCCCCCCCCCCC(=O)OCC(O)COP(=O)([O-])OCC[N+](C)(C)C (stereo not shown) [myristoyl LPC, myristoyl lysophosphatidylcholine]
stimulation of glucose uptake (3T3-L1 adipocytes): stimulated glucose uptake

lysophosphatidylserine [LPS]
level of blood glucose in normal mice (male ICR mice [1]; LPS study (FIG. 7A, 7B)): lowered the level of blood glucose in normal mice dose-dependently
change in blood insulin levels (male ICR mice [2]): not due to changes in blood insulin levels
time and dose dependence of glucose uptake (3T3-L1 adipocytes; 3T3-L1 adipocytes): stimulate glucose uptake with dose dependent manner
stimulation of glucose uptake (3T3-L1 adipocytes): specifically stimulated glucose uptake
blood glucose concentrations in STZ-treated insulin deficient mice [3]: significantly reduced blood glucose concentrations

CC(=O)c1c(O)c(C)c(O)c(Cc2c(O)c3c(c(C(=O)/C=C/c4ccccc4)c2O)OC(C)(C)C=C3)c1O [rottlerin, reference compound]
effect of pretreatment on LPC-stimulated glucose uptake (3T3-L1 adipocytes; 10 μM rottlerin for 30 min): completely inhibited

lysophosphatidic acid [LPA]
level of blood glucose in normal mice (male ICR mice [1]; LPA study (FIG. 11A, 11B)): lowered the level of blood glucose in normal mice dose-dependently
change in blood insulin levels (male ICR mice [2]): not due to changes in blood insulin levels
incubation time at which glucose uptake was maximally increased (3T3-L1 adipocytes; 20 μM, 0 to 20 min): 10 min
concentration of initial statistically significant effect on glucose uptake (3T3-L1 adipocytes; [4]): 1 µM
concentration of maximal effect on glucose uptake (3T3-L1 adipocytes; [4]): 20 µM
time and dose dependence of glucose uptake (3T3-L1 adipocytes; 3T3-L1 adipocytes): time- and dose-dependent increase in glucose uptake
Gαi dependence of glucose uptake stimulation (3T3-L1 adipocytes; Gαi inhibitor pertussis toxin): stimulates glucose uptake via to Gαi activation
PI3-kinase dependence of glucose uptake stimulation (3T3-L1 adipocytes; LY294002 pretreatment): dependent on PI3-kinase activation
Akt phosphorylation (IRS1 and AKT; LPA treatment of 3T3-L1 adipocytes): stimulated Akt phosphorylation

Cn1c2ccccc2c2c3c(c4c5ccccc5n(CCC#N)c4c21)CNC3=O [Gö6976, reference compound]
effect of pretreatment on LPC-stimulated glucose uptake (3T3-L1 adipocytes; 2 μM Gö6976 for 30 min): did not alter LPC stimulation of glucose uptake

CCCCCCCCCCCCC/C=C/[C@@H](O)[C@@H](N)COP(=O)(O)O [S1P]
level of blood glucose in normal mice (male ICR mice [1]; LPA study (FIG. 11A, 11B)): did not lower the blood glucose level in normal mice
level of blood glucose in normal mice (male ICR mice [1]; LPS study (FIG. 7A, 7B)): did not lower the blood glucose level in normal mice

CRF: Corticotrophin releasing factor (CRF), synthesized from Anygen (SEEPPISLDLTFHLLREVLEMARAEQLAQQAHSNRKLMEII; ends and bridges not checked; UniProt P06850 154-194, looked up) [reference compound]
insulin-mediated IR phosphorylation (insulin receptor (IR); 1 μM CRF family peptide with 2 nM insulin, 1 min): potentate insulin-mediated IR phosphorylation
IR phosphorylation by peptide alone (insulin receptor (IR); without insulin): no effect on IR phosphorylation

CCCCCCCCCCCCCCCCCC(=O)OCC(O)COP(=O)([O-])OCC[N+](C)(C)C (stereo not shown) [stearoyl LPC, stearoyl lysophosphatidylcholine, reference compound]
stimulation of glucose uptake (3T3-L1 adipocytes): did not stimulate glucose uptake

CCCCCCCCCCCCCCCC(=O)OC[C@@H](O)COP(=O)(O)OCC(O)CO (stereo partly shown) [palmytoyl LPG, palmytoyl lysophosphatidylglycerol, reference compound]
stimulation of glucose uptake (3T3-L1 adipocytes): did not stimulate glucose uptake

CCCCCCCCCCCCCCCC(=O)OC[C@@H](O)COP(=O)(O)OCCN [palmytoyl LPE, palmytoyl lysophsophatidylethanolamine]
level of blood glucose in normal mice (male ICR mice [1]; LPA study (FIG. 11A, 11B)): did not lower the blood glucose level in normal mice
level of blood glucose in normal mice (male ICR mice [1]; LPS study (FIG. 7A, 7B)): did not lower the blood glucose level in normal mice
stimulation of glucose uptake (3T3-L1 adipocytes): did not stimulate glucose uptake

CCCCCCCCCCCCCCCC(=O)OCC(O)COP(=O)(O)OC1C(O)C(O)C(O)C(O)C1O (stereo not shown) [palmytoyl LPI, palmytoyl lyso-phosphatidylinositol, reference compound]
stimulation of glucose uptake (3T3-L1 adipocytes): did not stimulate glucose uptake

insulin [reference compound]
GLUT4 translocation (GLUT4): stimulate GLUT4 translocation
phosphorylation of IRS1 and AKT (IRS1 and AKT; 10 nM insulin): augmentation of IRS1 and AKT phosphorylation

Cc1noc(-c2ccc(CSCCC(=O)O)cc2)c1NC(=O)OC(C)c1ccccc1Cl (stereo not shown) [Ki16425, reference compound]
effect on the glucose lowering effect by LPA (male ICR mice [1]; Ki16425 injected prior to administration of LPA): inhibited
effect of pretreatment on LPA-stimulated glucose uptake (3T3-L1 adipocytes; Ki16425 (LPA receptor antagonist) pretreatment): completely inhibited
